From patent US12054509B2, “Antimicrobial compounds, compositions, and uses thereof” (Lakewood Amedex, Inc., priority 2017, dated 2024)

Experiments:
Type in all cases: cell-based
[1] = test system: P. aeruginosa K2732; assay: Bacterial cytological profiling (Example 6), P. aeruginosa;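 as to effect on cell envelope: tested at 1 0.5 and 0.25 times MIC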
Procedure: (§1) This bacterial cytological profiling (BCP) study uses methods and materials described previously by Nonejuie, P., Burkart, M., Poglianoa, K., Pogiano, J. (2013). Bacterial cytological profiling rapidly identifies the cellular pathways targeted by antibacterial molecules. Proc. Natl. Acad. Sci. U.S.A. 110(40):16169-16174. doi: 10.1073/pnas.1311066110.
Wild type strains of E. coli ATCC 25922 or P. aeruginosa K2732 are grown in rich media (unbuffered 2× Lysogeny broth [LB]) at 30 C to an OD600˜0.4. These cultures are then split and each sample treated with the appropriate concentration of Nu-8 in unbuffered or buffered LB (final mixture OD600˜0.1). Cells exposed without Nu-8 are buffered to pH 4 with phosphoric acid.
The BCP is performed in LB media buffered to pH 4. The minimum inhibitory concentration (MIC) is measured for Nu-3, Nu-4, Nu-5, and Nu-8 against each bacterial strain. As one of ordinary skill in the art understands, minimum inhibitory concentrations are the lowest concentration of an antimicrobial that will inhibit the visible growth of a microorganism after overnight incubation. […] Cellular viability is assayed at three time points (5 minutes and 4 and 24 h following the onset of treatment).
For imaging E. coli, treated cells are stained with 1 μg/Ml FM4-64, 2 μg/mL DAPI, and 0.5 μM SYTOXGreen (Molecular Probes/Invitrogen). P. aeruginosa samples are stained 0.5 μM SYTOX Green, 28 μg/mL DAPI, and 4.5 μg/mL FM 4-64. Cells are transferred to an agarose pad (20% LB, 1% agarose) for imaging as described in Pogliano, J., Osborne, N., Sharp, M. D., Abanes-De Mello, A., Perez, A., Sun, Y.-L. and Pogliano, K. (1999), A vital stain for studying membrane dynamics in bacteria: a novel mechanism controlling septation during Bacillus subtilis sporulation. Molecular Microbiology, 31: 1149-1159. doi:10.1046/j.1365-2958.1999.01255.x.

[2] = test system: methicillin susceptible S. aureus (ATCC 29213); assay: Bacterial cytological profiling at pH 4, 5.5, 7 (Example 8), S. aureus; conditions: for cell permeability / cell viability: pH 4
Procedure: as §1, with “investigation” for “study”
For viable cell counts, cells are grown to OD600≈0.4 and diluted 1:1 into buffered or unbuffered media containing various compound concentrations. Samples are then collected and serially diluted (1:10) on a 96 well plate. Five microliters from each well are spotted on LB plates, incubated at 30° C., and viable cells are counted the next day.
Samples are collected at 10, 30, 120, and 240 min of exposure for viable cell count and imaging. For imaging, E. coli and S. aureus 200 μL of treated cells per time point are stained with 0.8 μg/mL FM4-64, 1.5 μg/mL DAPI, and 0.4 μM SYTOXGreen (Molecular Probes/Invitrogen). P. aeruginosa samples are stained 0.4 μM SYTOX Green, 28 μg/mL DAN, and 1 μg/mL FM 4-64. Cells are transferred to an agarose pad (20% LB, 1% agarose) for imaging.
For Nu-3 and Nu-8 stocks (at pH 4, 5.5 and 7), stock concentration is 500 mg/mL. For pH 4, the stocks are prepared by dissolving Nu-3 in 25 mM citrate buffer and Nu-8 in 350 mM citric acid. For pH 5.5, the stocks are prepared by dissolving Nu-3 in 25 mM citric-phosphate and Nu-8 in 25 mM critic. For pH 7, the stocks are prepared by dissolving Nu-3 and Nu-8 in 25 mM Sorensen phosphate buffer. 2×LB (lysogeny broth) solutions are prepared with 50 mM citrate buffer for pH 4, 50 mM citrate-phosphate buffer for pH 5.5, and 50 mM Sorensen phosphate buffer for pH 7.

[3] = test system: Haemophilus influenzae; assay: MIC at pH 3.5 (CLSI, Mueller-Hinton broth); conditions: 5 isolates
[4] = test system: E. coli; assay: MIC broth microdilution (CLSI) at incremental pH, E. coli; conditions: Escherichia coli
Procedure: MIC testing is conducted using the broth (Mueller Hinton Broth) microdilution procedures relevant to each organism group as established by the Clinical and Laboratory Standards Institute (CLSI; 3-7). MIC plates are prepared in accordance with CLSI (3-7). To prepare the test plates, automated liquid handlers are used to conduct serial dilutions and liquid transfers. Automated liquid handlers utilized in this study include the Multidrop 384 (Labsystems, Helsinki, Finland) and the Biomek 2000 (Beckman Coulter, Fullerton CA). The solution is diluted to desired pH using 1 M Citric Acid or 1 M NaOH buffer. A standardized inoculum of each test organism is prepared per CLSI methods (3, 5-7) to equal a 0.5 McFarland standard in the appropriate media followed by an additional 1:20 dilution (1:10 for anaerobes).
The plates are then inoculated with 10 μL of the diluted 0.5 McFarland suspension using the Biomek 2000 from low to high drug concentration, resulting in a final concentration of approximately 5×10^5 CFU/mL per well. An un-inoculated plate is incubated for the purpose of assessing solubility of the drug in the test media. The plates are stacked 3 to 4 high, covered with a sterile lid on the top plate, and incubated for 18 to 24 hours according to CLSI. The MIC is recorded as the lowest concentration of respective compound that inhibited visible growth of the organism.

SMILES: CCCCOP(=O)(O)OC[C@H]1O[C@@H](n2ccc(N)nc2=O)C[C@@H]1OP(=O)(O)OCCCC [Nu-8, sodium ((2R,3S,5R)-5-(4-amino-2-oxopyrimidin-1(2H)-yl)-3-((butoxyoxidophosphor-yl)oxy)tetrahydrofuran-2-yl)methyl butyl phosphate]
- effect on cell envelope ([1]; BCP): affect the cell envelope
- cell membrane permeability ([1]; buffered pH 4 or unbuffered LB): increase cell membrane permeability
- cell permeability ([2]; 125 mg/mL): < 4.3%
- cell viability ([2]; 125 mg/mL, by 240 min, from 10^7.5 CFU/mL at study start): 10^3 CFU/mL
- cell permeability ([2]; 250 mg/mL): ~60%
- cell viability ([2]; 250 mg/mL, within 10 min): ~10^4 CFU/mL
- cell growth ([2]; pH 5.5 and 7, 125 mg/mL and 250 mg/mL, up to 24 h): slightly reduce cell growth
- MIC [3]: 4.69 to 9.38 mg/mL
- MIC ([4]; pH 1): 9.8 mg/mL
- MIC ([4]; pH 3): 37.5 mg/mL
- MIC ([4]; pH 4): 75 mg/mL
- MIC ([4]; pH 5): > 75 mg/mL
- MIC ([4]; pH 7): > 75 mg/mL
